TGI data for one compound are collected here from PubChem BioAssay (NCI).

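48-hour exposure; five concentrations; linearly interpolated endpoints. TGI marks complete inhibition of growth.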 A value given as a limit tells only on which side of the number the result lay.

The subject of the experiment is P388 leukemia. In words: NCI tumour cell line growth inhibition, 48 h.

`CCSc1nc(COC(=O)NC)c(COC(=O)NC)n1C` showed a TGI of more than 100 µM.
